Patent EP2601945A1 (Thomale, Jürgen, priority 2011, dated 2013)

Columns and labels:
[1] = system: human cancer cell lines established from tumors (lung, bladder, testis); test: Co-application of cis-platin and DPH to cancer cell lines: apoptosis by Annexin V staining and FACS analysis; type: cell-based; conditions: cis-platin alone or in combination with DPH
[2] = type: in vivo, mice
Protocol: Since the protective effect of DPH for the cochlea may be mediated by blocking an ion transporter being relevant for the physiological function of the target cells, an additional experiment was done to verify whether a treatment with DPH alone alters the hearing capability of the mice. For this, five animals measured for their basal auditory sensitivity with the BAER test were treated 24 h later with a single dose of DPH (57 mg/kg), and were re-examined one hour later again by the BAER test.

[3] = cis-platin plus DPH, repetitive treatment

Structure (SMILES): CN(C)CCOC(c1ccccc1)c1ccccc1 [DPH, diphenhydramine]
- effect on the induction of apoptosis [1]: no inhibitory effect
- side effects of prolonged treatment ([2]; DPH alone, up to eight applications): no obvious side effects
- general health status versus cis-platin alone group [2, 3]: better
- weight loss versus cis-platin alone group [2, 3]: less severe
